From patent US10604526B2, “Chemokine receptor modulators and uses thereof” (RAPT THERAPEUTICS, INC., priority 2016, dated 2020)
pIC50: −log10 of the molar value.

target: T1, hCCR4 (Homo sapiens, UniProt P51679); test: Calcium flux assay; assay type: cell-based; conditions: Chem5-hCCR4 cells, CCL22 at EC80 of 1.5 nM, FLIPR Calcium 6 dye; read-out: Potency (IC50)
T1 sequence (P51679 1-360): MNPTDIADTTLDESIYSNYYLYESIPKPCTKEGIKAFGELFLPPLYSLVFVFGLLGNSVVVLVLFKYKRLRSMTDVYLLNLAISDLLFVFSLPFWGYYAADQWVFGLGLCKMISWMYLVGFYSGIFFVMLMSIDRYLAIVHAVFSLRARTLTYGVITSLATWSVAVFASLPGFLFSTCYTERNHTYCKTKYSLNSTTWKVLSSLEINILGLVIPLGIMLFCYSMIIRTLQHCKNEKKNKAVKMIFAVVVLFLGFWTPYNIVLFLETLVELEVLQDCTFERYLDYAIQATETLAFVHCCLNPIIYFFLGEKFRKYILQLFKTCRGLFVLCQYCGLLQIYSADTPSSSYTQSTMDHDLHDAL
Method in brief: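 Chem5 cells expressing hCCR4 were serum-starved for 2 h, loaded with Calcium 6 dye plus 2.5 mM probenecid, then given compound for 1 h at 37 °C (0.5% DMSO). CCL22 was added from a 7.5 nM working solution (5× EC80 of 1.5 nM). IC50 came from ΔF/Fmin (485/525 nm) by 4-parameter fit.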

| SMILES | pIC50 |
| --- | --- |
| Cc1nn([C@H](C)c2ccc(Cl)cc2Cl)c2nc(N3CC([C@H]4CCCN(CCCC(=O)O)C4)C3)cnc12 (single isomer, unassigned) [Example 10] | > 7.00 |
| Cc1nn([C@H](C)c2ccc(Cl)cc2Cl)c2nc(N3CC([C@@H]4CCCN(CCCC(=O)O)C4)C3)cnc12 (single isomer, unassigned) [Example 11] | 6.30 to 7.00 |
| Cc1nn([C@H](C)c2ccc(Cl)cc2Cl)c2nc(N3CC([C@@H]4CCCN(CCC(N)=O)C4)C3)cnc12 (single isomer, unassigned) [Example 12] | 6.30 to 7.00 |
| Cc1nn([C@H](C)c2ccc(Cl)cc2Cl)c2nc(N3CC([C@H]4CCCN(CCC(N)=O)C4)C3)cnc12 (single isomer, unassigned) [Example 13] | > 7.00 |
| Cc1nn([C@H](C)c2ccc(Cl)cc2Cl)c2nc(N3CC([C@H]4CCCN(CCCO)C4)C3)cnc12 (single isomer, unassigned) [Example 14] | > 7.00 |
| Cc1nn([C@H](C)c2ccc(Cl)cc2Cl)c2nc(N3CC([C@@H]4CCCN(CCCO)C4)C3)cnc12 (single isomer, unassigned) [Example 15] | 6.30 to 7.00 |
| C[C@H](c1ccc(Cl)cc1Cl)n1nc(C#N)c2ncc(N3CC([C@H]4CCCN(CCCC(=O)O)C4)C3)nc21 (single isomer, unassigned) [Example 18] | > 7.00 |
| C[C@H](c1ccc(Cl)cc1Cl)n1nc(C#N)c2ncc(N3CC([C@@H]4CCCN(CCCC(=O)O)C4)C3)nc21 (single isomer, unassigned) [Example 19] | > 7.00 |
| C[C@H](c1ccc(Cl)cc1Cl)n1nc(C#N)c2ncc(N3CC([C@@H]4CCCN(CCC(N)=O)C4)C3)nc21 (single isomer, unassigned) [Example 25] | > 7.00 |
| C[C@H](c1ccc(Cl)cc1Cl)n1nc(C#N)c2ncc(N3CC([C@H]4CCCN(CCC(N)=O)C4)C3)nc21 (single isomer, unassigned) [Example 26] | > 7.00 |
| CC(O)CN1CCC[C@H](C2CN(c3cnc4c(C#N)nn([C@H](C)c5ccc(Cl)cc5Cl)c4n3)C2)C1 (single isomer, unassigned) [Example 28] | > 7.00 |
| CC(O)CN1CCC[C@H](C2CN(c3cnc4c(C#N)nn([C@H](C)c5ccc(Cl)cc5Cl)c4n3)C2)C1 (single isomer, unassigned) [Example 29] | > 7.00 |
| CC(O)CN1CCC[C@@H](C2CN(c3cnc4c(C#N)nn([C@H](C)c5ccc(Cl)cc5Cl)c4n3)C2)C1 (single isomer, unassigned) [Example 30] | > 7.00 |
| CC(O)CN1CCC[C@@H](C2CN(c3cnc4c(C#N)nn([C@H](C)c5ccc(Cl)cc5Cl)c4n3)C2)C1 (single isomer, unassigned) [Example 31] | > 7.00 |
| C[C@H](c1ccc(Cl)cc1Cl)n1nc(C(N)=O)c2ncc(N3CC([C@@H]4CCCN(CCCC(=O)O)C4)C3)nc21 (single isomer, unassigned) [Example 32] | 6.30 to 7.00 |
| C[C@H](c1ccc(Cl)cc1Cl)n1nc(C(N)=O)c2ncc(N3CC([C@H]4CCCN(CCCC(=O)O)C4)C3)nc21 (single isomer, unassigned) [Example 33] | > 7.00 |
| C[C@H](c1ccc(Cl)cc1Cl)n1nc(C#N)c2ncc(N3CC(C4CCCN(CCO)C4)C3)nc21 (single isomer, unassigned) [Example 35] | > 7.00 |
| CC(c1ccc(Cl)cc1Cl)n1nc(C#N)c2ncc(N3CC([C@@H]4CCCN(CCO)C4)C3)nc21 (single isomer, unassigned) [Example 36] | > 7.00 |
| Cc1nn([C@H](C)c2ccc(Cl)cc2Cl)c2nc(N3CC([C@H]4CCCN(CCO)C4)C3)ncc12 (single isomer, unassigned) [Example 38] | > 7.00 |
| Cc1nn([C@H](C)c2ccc(Cl)cc2Cl)c2nc(N3CC([C@@H]4CCCN(CCO)C4)C3)ncc12 (single isomer, unassigned) [Example 39] | < 6.30 |
| C[C@H](c1ccc(Cl)cc1Cl)n1nc(C(F)(F)F)c2ncc(N3CC([C@H]4CCCN(CCO)C4)C3)nc21 (single isomer, unassigned) [Example 43] | > 7.00 |
| C[C@H](c1ccc(Cl)cc1Cl)n1nc(C(F)(F)F)c2ncc(N3CC([C@@H]4CCCN(CCO)C4)C3)nc21 (single isomer, unassigned) [Example 44] | 6.30 to 7.00 |
| CC(C)C(=O)NCCN1CCC[C@@H](C2CN(c3cnc4c(C(F)(F)F)nn([C@H](C)c5ccc(Cl)cc5Cl)c4n3)C2)C1 (single isomer, unassigned) [Example 51] | 6.30 to 7.00 |
| CC(C)C(=O)NCCN1CCC[C@H](C2CN(c3cnc4c(C(F)(F)F)nn([C@H](C)c5ccc(Cl)cc5Cl)c4n3)C2)C1 (single isomer, unassigned) [Example 52] | > 7.00 |

| SMILES | pIC50 |
| --- | --- |
| CC(=O)NCCN1CCC[C@@H](C2CN(c3cnc4c(C(F)(F)F)nn([C@H](C)c5ccc(Cl)cc5Cl)c4n3)C2)C1 (single isomer, unassigned) [Example 53] | 6.30 to 7.00 |
| CC(=O)NCCN1CCC[C@H](C2CN(c3cnc4c(C(F)(F)F)nn([C@H](C)c5ccc(Cl)cc5Cl)c4n3)C2)C1 (single isomer, unassigned) [Example 54] | > 7.00 |
| CNC(=O)CCCN1CCC[C@@H](C2CN(c3cnc4c(C#N)nn([C@H](C)c5ccc(Cl)cc5Cl)c4n3)C2)C1 (single isomer, unassigned) [Example 68] | 6.30 to 7.00 |
| CNC(=O)CCCN1CCC[C@H](C2CN(c3cnc4c(C#N)nn([C@H](C)c5ccc(Cl)cc5Cl)c4n3)C2)C1 (single isomer, unassigned) [Example 69] | > 7.00 |
| C[C@H](c1ccc(Cl)cc1Cl)n1nc(C#N)c2ncc(N3CC([C@@H]4CCCN(CC(C)(C)O)C4)C3)nc21 (single isomer, unassigned) [Example 70] | > 7.00 |
| C[C@H](c1ccc(Cl)cc1Cl)n1nc(C#N)c2ncc(N3CC([C@H]4CCCN(CC(C)(C)O)C4)C3)nc21 (single isomer, unassigned) [Example 71] | > 7.00 |
| CCCN1CCC[C@@H](C2CN(c3cnc4c(C#N)nn([C@H](C)c5ccc(Cl)cc5Cl)c4n3)C2)C1 (single isomer, unassigned) [Example 72] | 6.30 to 7.00 |
| CCCN1CCC[C@H](C2CN(c3cnc4c(C#N)nn([C@H](C)c5ccc(Cl)cc5Cl)c4n3)C2)C1 (single isomer, unassigned) [Example 73] | > 7.00 |
| C[C@H](c1ccc(Cl)cc1Cl)n1nc(C#N)c2ncc(N3CC([C@@H]4CCCN(CCCC(=O)N(C)C)C4)C3)nc21 (single isomer, unassigned) [Example 74] | 6.30 to 7.00 |
| C[C@H](c1ccc(Cl)cc1Cl)n1nc(C#N)c2ncc(N3CC([C@H]4CCCN(CCCC(=O)N(C)C)C4)C3)nc21 (single isomer, unassigned) [Example 75] | > 7.00 |
| CC(C)N1CCC[C@@H](C2CN(c3cnc4c(C#N)nn([C@H](C)c5ccc(Cl)cc5Cl)c4n3)C2)C1 (single isomer, unassigned) [Example 76] | 6.30 to 7.00 |
| CC(C)N1CCC[C@H](C2CN(c3cnc4c(C#N)nn([C@H](C)c5ccc(Cl)cc5Cl)c4n3)C2)C1 (single isomer, unassigned) [Example 77] | > 7.00 |
| C[C@H](c1ccc(Cl)cc1Cl)n1nc(C#N)c2ncc(N3CC([C@H]4CCCN(CCCC(N)=O)C4)C3)nc21 (single isomer, unassigned) [Example 78] | > 7.00 |
| C[C@H](c1ccc(Cl)cc1Cl)n1nc(C#N)c2ncc(N3CC([C@@H]4CCCN(CCCC(N)=O)C4)C3)nc21 (single isomer, unassigned) [Example 79] | 6.30 to 7.00 |
| C[C@H](c1ccc(Cl)cc1Cl)n1nc(C#N)c2ncc(N3CC([C@H]4CCCN(Cc5ncc[nH]5)C4)C3)nc21 (single isomer, unassigned) [Example 80] | > 7.00 |
| C[C@H](c1ccc(Cl)cc1Cl)n1nc(C#N)c2ncc(N3CC([C@@H]4CCCN(Cc5ncc[nH]5)C4)C3)nc21 (single isomer, unassigned) [Example 81] | 6.30 to 7.00 |
| COC(=O)NCCN1CCC[C@H](C2CN(c3cnc4c(C)nn([C@H](C)c5ccc(Cl)cc5Cl)c4n3)C2)C1 (single isomer, unassigned) [Example 84] | > 7.00 |
| COC(=O)NCCN1CCC[C@@H](C2CN(c3cnc4c(C)nn([C@H](C)c5ccc(Cl)cc5Cl)c4n3)C2)C1 (single isomer, unassigned) [Example 85] | > 7.00 |
| CC(=O)NCCN1CCC[C@@H](C2CN(c3cnc4c(C(F)(F)F)nn([C@H](C)c5ccc(Cl)cc5Cl)c4n3)C2)C1 (single isomer, unassigned) [Example 86] | 6.30 to 7.00 |
| CC(=O)NCCN1CCCC(C2CN(c3cnc4c(C(F)(F)F)nn([C@H](C)c5ccc(Cl)cc5Cl)c4n3)C2)C1 (single isomer, unassigned) [Example 87] | > 7.00 |
| CC(C)C(=O)NCCN1CCC[C@@H](C2CN(c3cnc4c(C(F)(F)F)nn([C@H](C)c5ccc(Cl)cc5Cl)c4n3)C2)C1 (single isomer, unassigned) [Example 88] | 6.30 to 7.00 |
| CC(C)C(=O)NCCN1CCC[C@H](C2CN(c3cnc4c(C(F)(F)F)nn([C@H](C)c5ccc(Cl)cc5Cl)c4n3)C2)C1 (single isomer, unassigned) [Example 89] | > 7.00 |
| Cc1nn([C@H](C)c2ccc(Cl)cc2Cl)c2nc(N3CC([C@H]4CCCN(CCNC(=O)C(C)C)C4)C3)cnc12 (single isomer, unassigned) [Example 90] | > 7.00 |
